Experiments:
Experiment in all cases: relative viability (nuclei count vs DMSO), 5 days (fraction); higher = more cells survive
RU-SKI 43 + Trametinib = compound: CC[C@@H](C)CNCC(=O)N1CCC2=C([C@@H]1COC3=CC=CC(=C3)C)C=CS2 [RU-SKI 43] + CC(=O)Nc1cccc(-n2c(=O)n(C3CC3)c(=O)c3c(Nc4ccc(I)cc4F)n(C)c(=O)c(C)c32)c1 [Trametinib] (partner 0.02 µM)
How it was run: (§1)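 Relative viability divides the nuclei count in treated wells by that in vehicle wells. Lung cancer cell lines were seeded in 1536-well plates, dosed by pin tool the next day, and fixed and stained after 5 days in one step with final 0.05% Triton X-100, 1% formaldehyde and 1 ug/ml Hoechst. Dosing was a single drug or a fixed anchor-drug dose plus five library-drug doses (not always all listed) in √10 steps, and values are medians of duplicate plates imaged at 4×.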

RU-SKI 43 + Pemetrexed = compound: CC[C@@H](C)CNCC(=O)N1CCC2=C([C@@H]1COC3=CC=CC(=C3)C)C=CS2 [RU-SKI 43] + Nc1nc2[nH]cc(CCc3ccc(C(=O)N[C@@H](CCC(=O)O)C(=O)O)cc3)c2c(=O)[nH]1 [Pemetrexed] (partner 0.2 µM)
How it was run: as §1

Irinotecan + Luminespib = compound: CCc1c2c(nc3ccc(OC(=O)N4CCC(N5CCCCC5)CC4)cc13)-c1cc3c(c(=O)n1C2)COC(=O)[C@]3(O)CC [Irinotecan] + CCNC(=O)c1noc(-c2cc(C(C)C)c(O)cc2O)c1-c1ccc(CN2CCOCC2)cc1 [Luminespib] (partner 0.01 µM)
How it was run: as §1

Irinotecan + AZD7762 = compound: CCc1c2c(nc3ccc(OC(=O)N4CCC(N5CCCCC5)CC4)cc13)-c1cc3c(c(=O)n1C2)COC(=O)[C@]3(O)CC [Irinotecan] + NC(=O)Nc1cc(-c2cccc(F)c2)sc1C(=O)N[C@H]1CCCNC1 [AZD7762] (partner 0.2 µM)
How it was run: as §1

| Cell Line | relative viability (RU-SKI 43 + Trametinib; first compound 0.1 µM) | relative viability (RU-SKI 43 + Trametinib; first compound 0.3162 µM) | relative viability (RU-SKI 43 + Trametinib; first compound 1 µM) | relative viability (RU-SKI 43 + Trametinib; first compound 3.162 µM) | relative viability (RU-SKI 43 + Trametinib; first compound 10 µM) | relative viability (RU-SKI 43 + Pemetrexed; first compound 0.1 µM) | relative viability (RU-SKI 43 + Pemetrexed; first compound 0.3162 µM) | relative viability (RU-SKI 43 + Pemetrexed; first compound 1 µM) | relative viability (RU-SKI 43 + Pemetrexed; first compound 3.162 µM) | relative viability (RU-SKI 43 + Pemetrexed; first compound 10 µM) | relative viability (Irinotecan + Luminespib; first compound 0.6325 µM) | relative viability (Irinotecan + Luminespib; first compound 2 µM) | relative viability (Irinotecan + Luminespib; first compound 6.325 µM) | relative viability (Irinotecan + Luminespib; first compound 20 µM) | relative viability (Irinotecan + AZD7762; first compound 0.6325 µM) | relative viability (Irinotecan + AZD7762; first compound 2 µM) | relative viability (Irinotecan + AZD7762; first compound 6.325 µM) | relative viability (Irinotecan + AZD7762; first compound 20 µM) |
| --- | --- | --- | --- | --- | --- | --- | --- | --- | --- | --- | --- | --- | --- | --- | --- | --- | --- | --- |
| LK-2 | 0.766 | 1.01 | 0.915 | 0.828 | 0.736 | 0.362 | 0.343 | 0.347 | 0.245 | 0.304 | 0.162 | 0.224 | 0.264 | 0.327 | 0.316 | 0.388 | 0.222 | 0.281 |
| LC-2-ad | 0.951 | 1.08 | 0.985 | 0.928 | 0.847 | 0.262 | 0.25 | 0.31 | 0.258 | 0.247 | 0.685 | 0.542 | 0.337 | 0.233 | 0.446 | 0.567 | 0.272 | 0.17 |
| NCI-H596 | 0.775 | 0.883 | 0.858 | 0.793 | 0.717 | 0.537 | 0.473 | 0.552 | 0.507 | 0.508 | 0.884 | 0.963 | 0.71 | 0.801 | 1.07 | 1.15 | 0.88 | 0.913 |
| LCLC-97TM1 | 0.193 | 0.246 | 0.256 | 0.187 | 0.148 | 0.188 | 0.175 | 0.19 | 0.184 | 0.178 | 0.228 | 0.208 | 0.148 | 0.181 | 0.0915 | 0.143 | 0.105 | 0.116 |
| NCI-H1395 | 1.06 | 1.2 | 1.23 | 0.98 | 0.981 | 0.992 | 0.805 | 1.2 | 0.855 | 0.967 | 0.76 | 0.651 | 0.388 | 0.534 | – | 0.441 | 0.424 | 0.233 |
| NCI-H2126 | 0.56 | 0.605 | 0.506 | 0.607 | 0.559 | 0.724 | 0.745 | 0.682 | 0.739 | 0.709 | – | 0.773 | 0.379 | 0.167 | 0.618 | 0.889 | 0.65 | 0.302 |
| EPLC-272H | 0.294 | 0.294 | 0.552 | 0.296 | 0.278 | 0.349 | 0.405 | 0.243 | 0.317 | 0.238 | 0.203 | 0.368 | 0.287 | 0.281 | – | 0.234 | 0.133 | 0.137 |
| NCI-H1793 | 0.439 | 0.386 | 0.435 | 0.473 | 0.479 | 1.01 | 0.995 | 0.941 | 0.772 | 1.02 | – | 0.193 | 0.192 | 0.262 | – | 0.387 | 0.232 | 0.217 |
| SW 900 | 0.818 | 0.76 | 1.03 | 1.02 | 0.594 | 0.484 | 0.494 | 0.498 | 0.478 | 0.461 | 0.203 | 0.387 | 0.366 | 0.465 | – | 0.587 | 0.472 | 0.404 |

— the supplement of paper PMC10307832
